Results: article PMC3938571, “Modulation of Basophils' Degranulation and Allergy-Related Enzymes by Monomeric and Dimeric Naphthoquinones” (PLoS ONE, 2014)
“Also recorded” adds a separate entry of the source.

What was measured:
soybean lipoxidase = target: T1, soybean lipoxidase (Glycine max, UniProt P08170); test: Soybean lipoxidase inhibition, cell-free; type: biochemical, Glicine max (L.) Merr.; settings: mean±SEM; for IC50: cell-free assay
T1 construct: purchased Sigma-Aldrich (St. Louis, MO, USA) type V-S; host or cells: soybean (plant preparation)
T1 sequence (P08170 1-839): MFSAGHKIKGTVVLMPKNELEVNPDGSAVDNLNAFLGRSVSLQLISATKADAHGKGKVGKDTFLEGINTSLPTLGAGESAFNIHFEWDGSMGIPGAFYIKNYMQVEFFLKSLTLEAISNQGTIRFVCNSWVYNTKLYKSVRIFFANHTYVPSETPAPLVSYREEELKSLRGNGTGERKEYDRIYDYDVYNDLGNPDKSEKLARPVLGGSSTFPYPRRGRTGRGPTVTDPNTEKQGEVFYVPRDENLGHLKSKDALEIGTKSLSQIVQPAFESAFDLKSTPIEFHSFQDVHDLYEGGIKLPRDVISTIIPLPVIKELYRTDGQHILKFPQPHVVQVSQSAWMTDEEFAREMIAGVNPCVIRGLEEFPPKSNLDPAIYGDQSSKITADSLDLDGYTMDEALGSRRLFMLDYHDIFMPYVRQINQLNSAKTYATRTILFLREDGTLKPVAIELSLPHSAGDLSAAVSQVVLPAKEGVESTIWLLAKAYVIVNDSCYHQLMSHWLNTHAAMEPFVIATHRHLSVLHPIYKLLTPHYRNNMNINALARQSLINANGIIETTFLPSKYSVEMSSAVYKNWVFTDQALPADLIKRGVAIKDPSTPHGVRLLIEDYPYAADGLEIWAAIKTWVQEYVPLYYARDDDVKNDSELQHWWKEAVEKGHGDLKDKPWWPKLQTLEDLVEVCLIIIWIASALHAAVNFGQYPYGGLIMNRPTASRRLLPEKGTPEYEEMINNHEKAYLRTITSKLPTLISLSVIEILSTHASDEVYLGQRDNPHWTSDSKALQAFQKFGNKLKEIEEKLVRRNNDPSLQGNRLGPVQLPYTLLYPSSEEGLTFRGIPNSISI
Experimental: Lipoxidase catalyses the oxidation of linoleic acid to the conjugated diene, 13-hydroperoxy linoleic acid, which was measured spectrophotometrically at 234 nm on a UV/visible spectrophotometer (UNICAM Helios α). The blank was measured in a reaction mixture with 20 µl of individual naphthoquinones solution, 1 ml of phosphate buffer (pH 9) and 20 µl of soybean lipoxidase 500 U. After 5 min pre-incubation at room temperature, the reaction was started by addition of 50 µl of substrate (linoleic acid) at 2 mM in ethanol. The reaction time was 3 min.

RBL-2H3 cells [1] = test: Histamine release in A23187-stimulated RBL-2H3 cells; type: cell-based, rat; settings: 10 µM; A23187 1 µM stimulus
Experimental: RBL-2H3 cells were seeded at 3.0×10^5 cells/mL in 24-wells plate (1 mL/well), and assayed after 24h at near-confluent stage (∼90%). Two different degranulation stimuli were used: calcium ionophore A23187 500 ng/mL (1 µM) and an immunologic stimulus (100 ng/mL IgE anti-DNP followed by 100 ng/mL DNP-BSA) that we refer to as IgE/antigen (Fig. 2). Both stimuli induced degranulation, which was quantified by β-hexosaminidase and histamine release. With IgE/antigen, β-hexosaminidase release (p-nitrophenolate absorbance) increased by 65.4±6.8% above basal (n = 16; P<0.001), whereas histamine increased from the basal value of 0.156±0.151 µM towards 0.521±0.186 µM (n = 10; P<0.05). […] Thus, the ability of naphthoquinones to reduce β-hexosaminidase release was quantified for both stimuli, whereas effects upon histamine were only quantified with the A23187 stimulus, given the low histamine release and poor signal to noise achieved with IgE/antigen.
Before treatment with A23187, cells were incubated with individual naphthoquinones during 15 min, at 37°C. […] Compounds were freshly diluted prior to cell exposure using EBSS supplemented with 0.1% BSA [21]. β-hexosaminidase and histamine release was quantified in supernatants, whereas the MTT cell viability assay was performed on adherent cells. […]

RBL-2H3 cells [2] = test: Calcium ionophore A23187-induced RBL-2H3 degranulation (β-hexosaminidase release); type: cell-based, rat; settings: for Effect on A23187 (calcium ionophore)-induced degranulation (in words): naphthazarin 0.1 µM, plumbagin 1 µM, diospyrin 10 µM, others at maximal tested concentrations
Experimental: RBL-2H3 cells were seeded at 3.0×10^5 cells/mL in 24-wells plate (1 mL/well), and assayed after 24h at near-confluent stage (∼90%). Two different degranulation stimuli were used: calcium ionophore A23187 500 ng/mL (1 µM) and an immunologic stimulus (100 ng/mL IgE anti-DNP followed by 100 ng/mL DNP-BSA) that we refer to as IgE/antigen (Fig. 2). Both stimuli induced degranulation, which was quantified by β-hexosaminidase and histamine release. With IgE/antigen, β-hexosaminidase release (p-nitrophenolate absorbance) increased by 65.4±6.8% above basal (n = 16; P<0.001), whereas histamine increased from the basal value of 0.156±0.151 µM towards 0.521±0.186 µM (n = 10; P<0.05). With A23187, β-hexosaminidase release increased by 187±18.9% above basal (n = 12; P<0.001), whereas histamine increased towards 2.43±0.330 µM (n = 12; P<0.001). Thus, the ability of naphthoquinones to reduce β-hexosaminidase release was quantified for both stimuli, whereas effects upon histamine were only quantified with the A23187 stimulus, given the low histamine release and poor signal to noise achieved with IgE/antigen.
Before treatment with A23187, cells were incubated with individual naphthoquinones during 15 min, at 37°C. After that, A23187 1 µM was added and cells incubated for 30 min, at 37°C (Fig. 2B). Compounds were freshly diluted prior to cell exposure using EBSS supplemented with 0.1% BSA [21]. β-hexosaminidase and histamine release was quantified in supernatants, whereas the MTT cell viability assay was performed on adherent cells.
The release of β-hexosaminidase from stimulated-RBL-2H3 cells was measured as previously described. In a 96-wells plate, 50 µl of substrate solution [p-nitrophenyl N-acetyl-D-glucosamine 1.3 mg/ml in citrate buffer (pH 4.5)] were added to 30 µl of supernatant. The plate was incubated at 37°C, during 1 h. The reaction was stopped by the addition of 80 µl of NaOH 0.5 M and the reaction product, p-nitrophenolate, was measured spectrophotometrically at 405 nm, in a microplate reader (Multiskan ASCENT Thermo®).

[3] = system: leukotriene C4 production; test: Leukotriene C4 production in IgE/antigen-stimulated RBL-2H3 cells (EIA); type: cell-based, rat; settings: 1 µM
[4] = system: hyaluronidase from bovine tests (type IV-S; EC 3.2.1.35); test: Hyaluronidase inhibition, cell-free (Morgan-Elson); type: biochemical; settings: for Hyaluronidase inhibition (%): maximal inhibition, mean±SEM
Experimental: The reaction product, N-acetyl-sugar, was quantified according Morgan-Elson colour reaction with minor modifications. The Morgan-Elson reaction was started by addition of 25 µl disodium tetraborate 0.8 M and subsequent heating in a boiling water bath during 3 min. After cooling, 750 µl p-dimethylaminobenzaldehyde (DMAB) was added and the reaction mixture was incubated at 37°C for 20 min. […] The measurement was made spectrophotometrically, at 560 nm, in a microplate reader (Multiskan ASCENT Thermo®), [24]. Sodium cromoglycate was used as a positive control for inhibition.

RBL-2H3 cells [5] = test: IgE/antigen-induced RBL-2H3 basophils' degranulation (β-hexosaminidase release); type: cell-based, rat; settings: for Effect on IgE/antigen-induced degranulation (in words): naphthazarin 0.1 µM, plumbagin 1 µM
Experimental: RBL-2H3 cells were seeded at 3.0×10^5 cells/mL in 24-wells plate (1 mL/well), and assayed after 24h at near-confluent stage (∼90%). Two different degranulation stimuli were used: calcium ionophore A23187 500 ng/mL (1 µM) and an immunologic stimulus (100 ng/mL IgE anti-DNP followed by 100 ng/mL DNP-BSA) that we refer to as IgE/antigen (Fig. 2). […] Thus, the ability of naphthoquinones to reduce β-hexosaminidase release was quantified for both stimuli, whereas effects upon histamine were only quantified with the A23187 stimulus, given the low histamine release and poor signal to noise achieved with IgE/antigen.
When the IgE/antigen was used as stimulus, cells were incubated during 16 h with 100 ng/ml IgE anti-DNP and with individual naphthoquinones diluted in culture medium. After washing twice with Dulbecco's phosphate buffered saline (DPBS), cells were treated for 1 h, at 37°C, with 100 ng/ml DNP-BSA and with individual naphthoquinones diluted in EBSS supplemented with 0.1% BSA (Fig. 2A). After treatments, supernatants were collected in order to quantify released β-hexosaminidase and released histamine, while cell viability assay was performed on adherent cells.
The release of β-hexosaminidase from stimulated-RBL-2H3 cells was measured as previously described. In a 96-wells plate, 50 µl of substrate solution [p-nitrophenyl N-acetyl-D-glucosamine 1.3 mg/ml in citrate buffer (pH 4.5)] were added to 30 µl of supernatant. The plate was incubated at 37°C, during 1 h.

RBL-2H3 cells [6] = type: cell-based; settings: rat
Experimental: Cell viability was assessed by the cellular dehydrogenases' dependent reduction of MTT to formazan, which was quantified by the measurement of optical density at 550 nm using a microplate reader (Multiskan ASCENT Thermo®), as described before.

[7] = system: peripheral blood mononuclear cells (PBMC); set-up: method as in PMID 21134493; settings: 5 µM; phytohemagglutinin-stimulated PBMC; cited from earlier work
[8] = Rattus norvegicus, RBL-2H3, maximal inhibition, mean±SEM, read-out: Degranulation inhibition (%) A23187 (decrease of β-hexosaminidase release)
[9] = Rattus norvegicus, RBL-2H3, maximal inhibition, mean±SEM, read-out: Degranulation inhibition (%) IgE/antigen (decrease of β-hexosaminidase release)

Compound	IC50 (soybean lipoxidase) [µM]	Effect on A23187 (calcium ionophore)-induced degranulation (in words) (RBL-2H3 cells [2])	inhibition at 1 µM (RBL-2H3 cells [5]; [9]) [%]	inhibition at 183.5 µM (soybean lipoxidase; maximal inhibition) [%]	Hyaluronidase inhibition (%) ([4]; 100 µM)	further results
Cc1cc(O)c2c(c1)C(=O)C(c1c(C)cc3c(c1O)C(=O)C=CC3=O)=CC2=O [Diospyrin, diospyrin]	28.9 ± 2.53	reduced degranulation	< 15			inhibition at 36.7 µM (soybean lipoxidase; 36.7 µM, maximal inhibition): 65.6 ± 6.24%; Decrease of histamine release (RBL-2H3 cells [1]): 51.4±12.8%; inhibition at 10 µM (RBL-2H3 cells [2]; [8]): 56.8 ± 14.6%; Effect on leukotriene (LT) C4 levels evoked by IgE/antigen (in words) [3]: unaffected; also recorded: unable to reduce leukotrien C4; Hyaluronidase inhibition (%) ([4]; 20 µM): < 15 (20 µM) %
Cc1cc(O)c2c(c1)C(=O)C(c1c(C)cc3c(c1O)C(=O)C1OC1C3=O)=CC2=O (stereo not drawn) [Diosquinone, diosquinone]	83.8 ± 9.33		18.4 ± 8.07	96.5 ± 0.92	< 15 (100 µM) %	inhibition at 1 µM (RBL-2H3 cells [2]; [8]): < 15%; Effect on leukotriene (LT) C4 levels evoked by IgE/antigen (in words) [3]: unaffected
O=C1C=CC(=O)c2c(O)cccc21 [Juglone, juglone]				53.1 ± 13.8	< 15 (100 µM) %	inhibition at 10 µM (RBL-2H3 cells [2]; [8]): < 15%; inhibition at 10 µM (RBL-2H3 cells [5]; Rattus norvegicus, RBL-2H3, 10 µM, maximal inhibition, mean±SEM, read-out: Degranulation inhibition (%) IgE/antigen (decrease of β-hexosaminidase release)): 39.2 ± 13.3%
O=C1C=CC(=O)c2c(O)ccc(O)c21 [Naphthazarin, naphthazarin]	142 ± 27.1	failed to reduce ionophore-induced degranulation		54.4 ± 9.33	16.9±2.45 (100 µM) %	inhibition at 0.1 µM (RBL-2H3 cells [2]; Rattus norvegicus, RBL-2H3, 0.1 µM, maximal inhibition, mean±SEM, read-out: Degranulation inhibition (%) A23187 (decrease of β-hexosaminidase release)): < 15%; inhibition at 0.1 µM (RBL-2H3 cells [5]; Rattus norvegicus, RBL-2H3, 0.1 µM, maximal inhibition, mean±SEM, read-out: Degranulation inhibition (%) IgE/antigen (decrease of β-hexosaminidase release)): 30.8 ± 3.82%; Effect on IgE/antigen-induced degranulation (in words) (RBL-2H3 cells [5]): decreased IgE/antigen-induced degranulation
CC1=CC(=O)c2c(O)cccc2C1=O [Plumbagin, plumbagin]	> 184	did not prevent degranulation	< 15	49.8 ± 5.23	< 15 (100 µM) %	Maximum non-toxic concentration (RBL-2H3 cells [6]): 1 µM; inhibition at 1 µM (RBL-2H3 cells [2]; [8]): < 15%; Effect on cytokines production (in words) [7]: inhibited cytokines production; Effect on IgE/antigen-induced degranulation (in words) (RBL-2H3 cells [5]): did not prevent degranulation
O=c1c(O)c(-c2ccc(O)c(O)c2)oc2cc(O)cc(O)c12 [Quercetin, reference compound]						Concentration required to reduce β-hexosaminidase release (RBL-2H3 cells [2]; A23187 assay, 10-fold higher than in IgE/antigen assay): 100 µM
O=C(O)c1cc(=O)c2c(OCC(O)COc3cccc4oc(C(=O)O)cc(=O)c34)cccc2o1 [sodium cromoglycate, Sodium cromoglycate, reference compound]						Concentration required for complete hyaluronidase inhibition ([4]; positive control): 10 mM
